Here are results for five compounds from patent US10918645B2 (LIFEARC, priority 2016, dated 2021).

In experiment [1] the target is T1, JAK2 (Homo sapiens (Human), UniProt O60674). Kind of experiment: JAK2 kinase selectivity assay (33P panel). In kind it is biochemical. To be noted: 1 μM inhibitor concentration. As to the method:
JAK2 (5-20 mU diluted in 50 mM Tris pH 7.5, 0.1 mM EGTA, 0.05% 0-mercaptoethanol, 1 mg/ml BSA) is assayed against PDKtide ([…]-[…]) in a final volume of 25.5 μl containing 50 mM Tris pH 7.5, 0.1 mM EGTA, 0.05% 0-mercaptoethanol, 100 μM substrate peptide, 10 mM magnesium acetate and 0.005 mM [33P-γ-ATP] (50-1000 cpm/pmole) and incubated for 30 min at room temperature Assays are stopped by addition of 5 μl of 0.5 M (3%) orthophosphoric acid and then harvested onto P81 Unifilter plates with a wash buffer of 50 mM orthophosphoric acid.
Target sequence in this assay (O60674 whole entry, species assumed): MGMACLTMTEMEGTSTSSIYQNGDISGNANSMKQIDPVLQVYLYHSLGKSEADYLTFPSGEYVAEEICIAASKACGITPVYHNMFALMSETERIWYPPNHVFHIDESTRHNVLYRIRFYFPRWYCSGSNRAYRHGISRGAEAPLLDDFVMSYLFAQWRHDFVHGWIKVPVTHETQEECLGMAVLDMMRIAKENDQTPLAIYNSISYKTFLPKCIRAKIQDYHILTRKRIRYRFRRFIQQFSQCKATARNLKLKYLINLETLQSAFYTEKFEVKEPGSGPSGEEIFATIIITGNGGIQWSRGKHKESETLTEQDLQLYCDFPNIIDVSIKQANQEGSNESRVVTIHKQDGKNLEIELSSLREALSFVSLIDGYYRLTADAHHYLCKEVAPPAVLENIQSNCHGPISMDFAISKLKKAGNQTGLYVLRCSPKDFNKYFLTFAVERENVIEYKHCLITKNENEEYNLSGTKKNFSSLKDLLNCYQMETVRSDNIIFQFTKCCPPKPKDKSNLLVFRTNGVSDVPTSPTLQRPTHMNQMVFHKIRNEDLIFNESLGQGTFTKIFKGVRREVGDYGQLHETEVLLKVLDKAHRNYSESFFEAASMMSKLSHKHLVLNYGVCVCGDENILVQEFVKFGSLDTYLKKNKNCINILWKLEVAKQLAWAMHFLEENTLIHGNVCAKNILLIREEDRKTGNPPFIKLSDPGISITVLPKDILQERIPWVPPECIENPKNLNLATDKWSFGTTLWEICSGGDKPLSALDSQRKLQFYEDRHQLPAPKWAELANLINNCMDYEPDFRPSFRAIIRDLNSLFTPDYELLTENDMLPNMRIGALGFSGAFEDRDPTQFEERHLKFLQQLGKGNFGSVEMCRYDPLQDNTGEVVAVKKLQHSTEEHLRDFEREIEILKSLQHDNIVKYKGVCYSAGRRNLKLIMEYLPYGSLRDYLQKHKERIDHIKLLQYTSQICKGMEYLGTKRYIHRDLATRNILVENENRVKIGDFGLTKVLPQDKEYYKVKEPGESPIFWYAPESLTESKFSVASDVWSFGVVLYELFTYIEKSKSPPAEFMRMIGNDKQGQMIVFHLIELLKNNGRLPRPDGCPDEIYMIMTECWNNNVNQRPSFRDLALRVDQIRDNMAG

Experiment [2] concerns the target T1, JAK2. Nature of the experiment: LANCE Kinase Assay (JAK2_IC50 selectivity assay). The format is biochemical. An excerpt: In LANCE® Kinase Assay (JAK2_IC50 selectivity assay): JAK2 (Invitrogen, Cat. No PV4288), ATP (Sigma, Cat. No. A7699-1G), DMSO (Sigma, Cat. No. D2650), DTT (Sigma, Cat. No. 43815), LANCE Ultra ULight™-JAK-1 peptide (Perkin Elmer, Cat. No. TRF0121), LANCE Eu-W1024 Anti-phosphotyrosine (PT66) (Perkin Elmer, Cat. No. AD0069), LANCE™ Detection Buffer (Perkin Elmer, Cat. No. CR97-100), Tofacitinib (PharmaBlock Sciences(Nanjing), Inc, Cat. No. PBN2011586-01); Equipments: Envision (Perkin Elmer), Bravo (Agilent); Consumables: 384 well Intermediate plate (Greiner, Cat. No. 781280), 384 well assay plate (Perkin Elmer, Cat. No. 6007299),
The assay involves two steps, the enzymatic step and the detection step with HTRF reagents. Step 1: During the enzymatic step the substrate-biotin is incubated with the kinase of interest. ATP is added to start the reaction. Step 2: The detection reagent catches the phosphorylated substrate and the resulting TR-FRET is proportional to the phosphorylation level.
Compound Preparation: Dissolve the test compounds into 30 mM DMSO solution and put them in nitrogen hood at room temperature for long term storage; Dilute the 30 mM compound in DMSO with 3-fold factor, total 11 concentrations; Aspirate 1 μl compound and then dilute them in 25 folds with kinase buffer. Mix well and balance 30 minutes at room temperature.
Kinase Reaction: Transfer 2.5 μl compounds in kinase buffer (4×) into assay plate by Agilent Bravo. Spin the plate; Transfer 5 μl enzyme mixture into the assay plate by using Eppendorf electronic multi-channel pipette. Spin the plate; Incubate the assay plate for 20 minutes at room temperature (23° C.); Add 2.5 μl kinase buffer with ATP into the assay plate by using Multidrop. Spin and seal the plate; Incubate the assay plate for 90 minutes at room temperature (23° C.).
Stop Reaction: Transfer 10 μl detection reagent (2 nM LANCE Eu-W1024 Anti-phosphotyrosine) into the assay plate by using Eppendorf electronic multi-channel pipette. Spin and seal the plate; Incubate the assay plate at room temperature (23° C.) for 60 minutes.
Detection and Read: The excitation wavelength is 340 nm, the primary emission wavelength is 615 nm and the secondary emission wavelength is 665 nm (for Cryptate and Ulight, respectively). Read the plate with EnVision to get the readout of both wavelengths; Calculate the ratio of 665 nm/615 nm.
(§1) IC50 estimates were obtained using the software XLfit (IDBS Inc.).
Target sequence in this assay (O60674 whole entry): as the sequence (O60674 whole entry, species assumed) above
For orientation: TR-FRET usually uses a lanthanide donor and a delayed reading to cut background.

A further experiment has as its target LRRK2 G2019S (Homo sapiens (Human), UniProt Q5S007, G2019S). Nature of the experiment: Adapta Kinase Assay (LRRK2_IC50 assay). The format is biochemical. The following applies: inhibition of LRRK2 G2019S. The procedure: In Adapta™ Kinase Assay (LRRK2_IC50 assay): the Kinase Reaction Buffer contained 5× Kinase Buffer S (Life Technologies, PV5213) and 2 mM DTT (Life Technologies, P2325).
The Adapta® universal kinase assay is a homogenous, fluorescent based immunoassay for the detection of ADP. In contrast to ATP depletion assays, the Adapta® assay is extremely sensitive to ADP formation such that a majority of the signal change occurs in the first 10-20% conversion of ATP to ADP. This makes the Adapta® universal kinase assay ideally suited for use with low activity kinases.
Prepare a 1× solution of kinase reaction buffer from the 5× Kinase Buffer S stock (listed above) by adding 2 ml of 5× stock to 8 ml of H2O to make 10 ml of 1× kinase reaction buffer. To this, add 20 μl of 1 M DTT.
Kinase reactions are performed in a 10 μl volume in low-volume 384-well plates. […] Other non—treated assay plates, while not tested, may also be suitable. The concentration of substrate in the assay is 100 μM, and the 1× kinase reaction buffer consists of 50 mM Tris-HCl pH8.5, 10 mM MgCl2, 1 mM EGTA, 0.01% Brij-35, and 2 mM DTT, plus any additional additives that may be required for a specific kinase. […] The plate is allowed to equilibrate at room temperature for at least 30 minutes before being read on a plate reader configured for Adapta™ TR-FRET.
The data presented in this document were generated using a BMG LABTECH PHERAstar plate reader using the appropriate filters and instrument settings for Adapta™. The Test Compounds are screened in 1% DMSO (final) in the well. For 8 point titrations, 5-fold serial dilutions are conducted from the starting concentration.
as §1

Experiment [3] has as its system transgenic Drosophila expressing LRRK2-G2019S in dopamine (DA) neurons. Kind of experiment: Drosophila model survival rate. The format is in vivo. To be noted: significance compared to DMSO negative control. The text has this: Drosophila model was used to evaluate Examples in vivo. The GAL4/UAS system developed by Andrea Brand and Norbert Perrimon in 1993 [45] was used to generate transgenic Drosophila expressing LRRK2-G2019S in dopamine (DA) neurons. The system has two parts: the GAL4 gene, encoding the yeast transcription activator protein GAL4, and the UAS (Upstream Activation Sequence), an enhancer to which GAL4 specifically binds to activate gene transcription. This system takes advantage of the yeast GAL4 transcription factor, which binds specifically to the UAS.
To express LRRK2-G2019S in DA neurons, the UAS-Wild Type-LRRK2 and UAS-G2019S-LRRK2 transgenes were combined with the dopa decarboxylase (ddc)-GAL4 driver. The 10 μM GW5074 was used for the positive control. […]
Twenty newly enclosed female Drosophila were collected and placed in a food vial. The Drosophila were moved to fresh food vials every other day at which time deaths were scored.
Based on Drosophila′ survival curve, the 50% survival time parameter indicates the time at which half of the Drosophila remained alive and was used to compare the survival ratio between the different groups. The mean 50% survival times and the standard errors were calculated based on 4 separate experiments for each group. The data were analysed by GraphPad PRISM® 6.0 software.

Chain of LRRK2 G2019S (Q5S007 970-2527 G2019S): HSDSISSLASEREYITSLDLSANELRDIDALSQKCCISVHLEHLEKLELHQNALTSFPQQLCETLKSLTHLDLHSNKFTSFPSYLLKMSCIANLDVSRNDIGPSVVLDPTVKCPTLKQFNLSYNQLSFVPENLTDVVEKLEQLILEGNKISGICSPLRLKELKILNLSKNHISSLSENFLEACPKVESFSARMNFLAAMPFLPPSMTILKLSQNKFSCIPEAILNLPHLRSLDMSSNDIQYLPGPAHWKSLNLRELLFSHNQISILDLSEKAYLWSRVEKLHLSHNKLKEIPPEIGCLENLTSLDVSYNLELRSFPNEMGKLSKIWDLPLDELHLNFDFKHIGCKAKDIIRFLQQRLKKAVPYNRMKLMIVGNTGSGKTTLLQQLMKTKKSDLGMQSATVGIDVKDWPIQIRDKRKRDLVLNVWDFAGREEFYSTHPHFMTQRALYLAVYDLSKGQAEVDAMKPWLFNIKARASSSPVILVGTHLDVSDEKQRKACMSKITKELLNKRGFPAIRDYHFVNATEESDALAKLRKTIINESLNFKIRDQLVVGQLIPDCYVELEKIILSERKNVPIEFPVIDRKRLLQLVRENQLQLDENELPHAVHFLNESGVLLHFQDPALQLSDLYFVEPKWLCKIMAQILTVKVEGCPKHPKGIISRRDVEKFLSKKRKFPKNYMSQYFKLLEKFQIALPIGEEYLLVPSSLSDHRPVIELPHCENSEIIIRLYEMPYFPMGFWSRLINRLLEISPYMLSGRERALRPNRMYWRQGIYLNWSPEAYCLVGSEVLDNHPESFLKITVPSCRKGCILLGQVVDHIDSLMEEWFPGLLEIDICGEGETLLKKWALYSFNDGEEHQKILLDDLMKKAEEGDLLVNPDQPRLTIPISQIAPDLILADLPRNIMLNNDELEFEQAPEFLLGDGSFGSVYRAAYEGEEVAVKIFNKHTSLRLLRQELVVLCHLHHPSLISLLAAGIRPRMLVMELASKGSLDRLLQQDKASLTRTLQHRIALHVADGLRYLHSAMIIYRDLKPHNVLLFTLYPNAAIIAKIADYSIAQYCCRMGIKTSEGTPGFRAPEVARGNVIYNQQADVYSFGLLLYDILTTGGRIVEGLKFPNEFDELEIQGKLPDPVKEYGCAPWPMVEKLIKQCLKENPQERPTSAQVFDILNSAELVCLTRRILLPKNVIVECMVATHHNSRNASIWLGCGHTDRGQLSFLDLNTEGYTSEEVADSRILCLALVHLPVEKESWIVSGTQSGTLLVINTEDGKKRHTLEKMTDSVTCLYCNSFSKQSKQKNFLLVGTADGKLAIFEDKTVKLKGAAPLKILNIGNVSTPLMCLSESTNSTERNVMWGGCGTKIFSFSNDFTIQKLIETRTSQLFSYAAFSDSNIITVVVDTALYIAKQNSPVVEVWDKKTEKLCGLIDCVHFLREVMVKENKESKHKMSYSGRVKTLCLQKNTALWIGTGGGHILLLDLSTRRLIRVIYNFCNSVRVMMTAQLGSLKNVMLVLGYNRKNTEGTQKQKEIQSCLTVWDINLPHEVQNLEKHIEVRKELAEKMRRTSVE

Take `c1cc2[nH]nc3c2c(n1)N(C1CCC1)CCC3` [Example 22, 6-cyclobutyl-6,7,8,9-tetrahydro-2H-1,2,5,6-tetraazabenzo[cd]azulene]: the “percentage inhibition of JAK2” value on JAK2 [1] worked out at 5 percentage. At JAK2 [2], the IC50 – broadly, the concentration at which inhibition is half-maximal – stood at 8.4 µM.

Take `c1cc2[nH]nc3c2c(n1)N(C1CCCC1)CCC3` [Example 23, 6-cyclopentyl-6,7,8,9-tetrahydro-2H-1,2,5,6-tetraazabenzo[cd]azulene]: the “percentage inhibition of JAK2” value on JAK2 [1] was 12 percentage. In the case of `c1cc2[nH]nc3c2c(n1)N(C1CCOCC1)CCC3` [Example 29, 6-(tetrahydro-2H-pyran-4-yl)-6,7,8,9-tetrahydro-2H-1,2,5,6-tetraazabenzo[cd]azulene], 0.15 µM corresponded to half-maximal inhibition against LRRK2 G2019S (IC50). In addition, in experiment [3], the “Survival Rate” value is “* (P < 0.05, compared to DMSO negative control)”. In the case of `CN1CCC(N2Cc3ccccc3-c3n[nH]c4ccnc2c34)CC1` [Example 55], on LRRK2 G2019S, the concentration for half-maximal inhibition (IC50) came out at 0.05 µM. On JAK2 [2], `CC(C)n1ncc2c1CN(C1CCN(C)CC1)c1nccc3[nH]nc-2c13` [Example 68] showed a concentration for half-maximal inhibition (IC50) of 6.3 µM.
